# Measured values from patent publication US5223526A, “Pyrazole carboxanilide fungicides and use” (Monsanto Company, priority 1992, dated 1993).
# Legend:
# succinate dehydrogenase = molecular target: T1, succinate dehydrogenase (Botrytis cinerea, UniProt A0A384J5E4+A0A384J8V8+A0A384JHJ5); experiment: Enzyme inhibition: succinate dehydrogenase activity in Botrytis cinerea mitochondria (DCPIP reduction); type: biochemical; details: concentration required to inhibit the rate of DCPIP reduction by 50%; Botrytis cinerea isolate Nick mitochondria; read-out: I50 (μM conc.)
# T1 construct: succinate-DCPIP reductase assay with KCN
# T1 sequence (A0A384J5E4 1-300): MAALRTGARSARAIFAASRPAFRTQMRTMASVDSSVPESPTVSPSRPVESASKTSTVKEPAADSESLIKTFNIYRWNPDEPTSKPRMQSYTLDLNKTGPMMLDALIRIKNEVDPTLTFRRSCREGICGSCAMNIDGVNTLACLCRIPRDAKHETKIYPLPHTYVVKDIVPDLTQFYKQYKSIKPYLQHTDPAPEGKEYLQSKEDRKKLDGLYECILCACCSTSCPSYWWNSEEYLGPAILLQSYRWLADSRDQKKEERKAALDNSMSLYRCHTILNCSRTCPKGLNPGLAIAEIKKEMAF
# T1 sequence (A0A384J8V8 1-189): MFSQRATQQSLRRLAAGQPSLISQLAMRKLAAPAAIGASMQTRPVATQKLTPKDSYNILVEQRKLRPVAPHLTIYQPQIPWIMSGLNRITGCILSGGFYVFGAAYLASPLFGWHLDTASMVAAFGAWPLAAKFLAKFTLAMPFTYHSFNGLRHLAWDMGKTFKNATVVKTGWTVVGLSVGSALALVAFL
# T1 sequence (A0A384JHJ5 1-192): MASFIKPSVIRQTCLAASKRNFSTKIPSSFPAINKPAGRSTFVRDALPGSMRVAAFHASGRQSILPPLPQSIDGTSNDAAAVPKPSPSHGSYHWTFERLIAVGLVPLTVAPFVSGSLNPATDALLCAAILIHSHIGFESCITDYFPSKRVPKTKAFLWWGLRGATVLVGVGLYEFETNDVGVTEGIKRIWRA
# T1 sequence (A0A384K456 1-647 partner): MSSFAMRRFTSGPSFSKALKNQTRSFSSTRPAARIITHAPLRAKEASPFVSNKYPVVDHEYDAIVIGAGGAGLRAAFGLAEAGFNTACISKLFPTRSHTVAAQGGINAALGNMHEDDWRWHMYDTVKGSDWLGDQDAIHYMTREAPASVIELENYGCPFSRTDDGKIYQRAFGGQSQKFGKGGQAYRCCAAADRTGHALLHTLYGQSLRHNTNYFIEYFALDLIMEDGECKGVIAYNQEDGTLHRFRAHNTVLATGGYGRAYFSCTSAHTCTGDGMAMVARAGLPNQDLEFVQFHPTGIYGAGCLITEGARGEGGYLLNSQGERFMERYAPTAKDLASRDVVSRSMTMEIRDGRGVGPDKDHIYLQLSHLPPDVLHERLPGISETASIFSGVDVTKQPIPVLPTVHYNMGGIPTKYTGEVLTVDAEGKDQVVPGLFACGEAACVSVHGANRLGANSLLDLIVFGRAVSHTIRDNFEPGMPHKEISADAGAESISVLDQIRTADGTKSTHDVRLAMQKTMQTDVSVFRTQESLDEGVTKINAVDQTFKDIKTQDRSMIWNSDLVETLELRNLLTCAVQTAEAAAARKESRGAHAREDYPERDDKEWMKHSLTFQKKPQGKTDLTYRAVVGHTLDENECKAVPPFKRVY
# Description: Mitochondria were isolated by a method adapted from G.A. White [Biochem. Biophys. Res. Commun. 44: 1212, 1971]. Twenty to thirty grams of Botrytis cinerea isolate Nick were resuspended in 250 mL 0.25M sucrose, 5mM Na4 EDTA, pH 7.0 (+) 0.15% (w/v) bovine serum albumin (BSA) and placed in a Bead Beater chamber (Biospec Products, Bartlesville, Ok.). Zirconium oxide beads (0.5mm) were added to finish filling the chamber. Four 30 second beats separated by 2 minute temperature equilibration periods in the cold were used to break the mycelia. A crude mitochondrial preparation was harvested from the homogenate by differential centrifugation at 4° C. and resuspended in BSA-free sucrose/EDTA media and used for SDH assays.
# The succinate dehydrogenase activity was measured at 600 nm in 50 mM potassium phosphate, pH 7.2, 1 mM KCN, 45 μM 2,6-dichlorophenolindophenol (DCPIP) and 17 mM disodium succinate (final volume, 1 mL) with a Perkin-Elmer Lambda 7 ultraviolet-visible spectrophotometer. The test compounds were added as acetone solutions (final concentration of acetone, 1% (v/v)). The mitochondrial preparatons were used to initiate the reaction. All rates were corrected for endogenous activities minus succinate. Semilog plots of percentage inhibition versus test compound concentration were used to determine inhibition expressed as I50 (μM) which is the concentration required to inhibit the rate of DCPIP reduction by 50%. The commercial fungicide carboxin was used as standard throughout.
# Botrytis cinerea [1] = experiment: Eggplant grey mold; type: in vivo; design: scale not given here; details: inoculated 24 h later, rated after 3-4 days; for Disease Control Rating at 500 ppm: eggplant sprayed with 500 ppm; for Disease Control Rating at 20 ppm: eggplant sprayed with 20 ppm; for Disease Control Rating at 100 ppm: eggplant sprayed with 100 ppm
# Description: Eggplant seed are planted in 2.25" square pots, six per pot, and maintained in growth chambers set at 23° C., 80% humidity, and 12 h photoperiod. When the plants are at the cotyledon stage (14-18 days afterplanting), the plants are sprayed with 1.5 mL/pot of 500, 100 or 20 ppm 2:3 acetone:water (with 0.5% Tween® 20) formulations of the test compounds.
# Twenty-four hours later the plants are inoculated with Botrytis cinerea, approximately 0.5 mL/pot of a 4×10^6 spore/mL suspension. The plantes are incubated at 23° C. and 100% humidity for 3-4 days, at which time disease control ratings are made based on presence and severity of Botrytis lesions.
# Botrytis cinerea [2] = experiment: Vine grey mold (grape berries); type: in vivo; details: average of six berries, 7-10 days; for pest or weed control at 50 ppm: grape berries treated with 50 ppm, read-out: % DISEASE CONTROL 50 ppm; for pest or weed control at 200 ppm: grape berries treated with 200 ppm, read-out: % DISEASE CONTROL 200 ppm
# Description: Grape berries, which have been washed and surfaced sterilized in 70% ethanol for one minute, are, except for the negative controls, treated with 0.2 mL of a 2:3 acetone/water formulation (containing 0.05% Tween® 20) of 200 or 50 ppm of the test compounds and placed one per well in 12-well plates. Six berries per treatment level are used. Twenty-four hours later each berry is inoculated with Botrytis cinerea conidia, 0.2 mL of 10^6 spores/mL suspension. The plates are incubated at 20° C. with a 12 hours photoperiod for 7-10 days and the percent surface area infected with the disease is determined for each replicate using the values of 0, 1, 2, 5, 7, 10, 15, 20, 25, 30, 35, 40, 45, 50, 55, 60, 65, 70, 75, 80, 85, 90, 95, and 100%. Treatment means are calculated and percent disease control is determined by the formula [(control mean - treatment mean)/control means]×100.
# Some of the compounds have been tested more than once and the results shown are the average of the number of tests reported.
# Rhizoctonia solani = experiment: Rice sheath blight; type: in vivo; design: scale not given here; details: inoculated two days later, rated after 7 days, average of five plants; for Disease Control Rating at 0.5 mg/mL: foliage and soil sprayed with 0.5 mg/mL; for Disease Control Rating at 0.02 mg/mL: foliage and soil sprayed with 0.02 mg/mL; for Disease Control Rating at 0.1 mg/mL: foliage and soil sprayed with 0.1 mg/mL
# Description: Rice plants, 11 to 15 days old, are grown in 7.65 cm^2 pots. Each plant in the treatment groups is treated by spraying both the foliage and the soil surface, each with 2 mL of a water/acetone/Tween®20 formulation containing 0.5, 0.1, or 0.02 mg/mL of Compound A. The pots are placed in flood trays which are filled with water to just below the soil line. Two days later, approximately two grams of Rhizoctonia solani inoculum, cultured on rice grain for four to eight weeks, is applied to the base of the rice plants in each pot. After 7 days in a 25° C. high humidity growth chamber, each plant is evaluated for the level of disease contro as compared to untreated controls by the following scale and the average of five plants per treatment level is calculated.
SMILES,IC50 (succinate dehydrogenase) [µM],Disease Control Rating at 500 ppm (Botrytis cinerea [1]),pest or weed control at 50 ppm (Botrytis cinerea [2]) [%],pest or weed control at 200 ppm (Botrytis cinerea [2]) [%],Disease Control Rating at 0.5 mg/mL (Rhizoctonia solani),Disease Control Rating at 20 ppm (Botrytis cinerea [1]),Disease Control Rating at 100 ppm (Botrytis cinerea [1]),Disease Control Rating at 0.02 mg/mL (Rhizoctonia solani),Disease Control Rating at 0.1 mg/mL (Rhizoctonia solani)
"Cn1cc(C(=O)Nc2ccccc2C2CCCC2)c(C(F)F)n1 [Example 7, 1H-pyrazole-4-carboxamide, N-(2-cyclopentylphenyl)-3-(difluoromethyl)-1-methyl-]",0.0072,0,72,86,1,,,,
"Cn1cc(C(=O)Nc2ccccc2C2CCCC2)c(C(F)(F)F)n1 [Example 8, 1H-pyrazole-4-carboxamide, N-(2-cyclopentylphenyl)-1-methyl-3-(trifluoromethyl)-]",0.016,0,37,83,0,,,,
"Cn1cc(C(=O)Nc2ccccc2C2CCCCCC2)c(C(F)F)n1 [Example 9, 1H-pyrazole-4-carboxamide, N-(2-cycloheptylphenyl)-3-(difluoromethyl)-1-methyl-]",0.0019,2,94,89,3,0,2,3,3
"Cn1cc(C(=O)Nc2ccccc2C2CCCCCC2)c(C(F)(F)F)n1 [Example 10, 1H-pyrazole-4-carboxamide, N-(2-cycloheptylphenyl)-1-methyl-3-(trifluoromethyl)-]",0.003,2,87,85,3,2,2,2,3
"Cn1cc(C(=O)Nc2ccc(F)cc2C2CCCCC2)c(C(F)F)n1 [Example 11, 1H-pyrazole-4-carboxamide, N-(2-cyclohexyl-4-fluorophenyl)-3-(difluoromethyl)-1-methyl-]",0.0054,3,75,92,3,2,2,1,3
"Cn1cc(C(=O)Nc2ccc(F)cc2C2CCCCC2)c(C(F)(F)F)n1 [Example 12, 1H-pyrazole-4 carboxamide, N-(2-cyclohexyl-4-fluorophenyl)-1-methyl-3-(trifluoromethyl)-]",0.0089,3,58,59,2,1,1,,
"Cc1nn(C)cc1C(=O)Nc1ccccc1C1CCCCCC1 [Example 13, 1H-pyrazole-4-carboxamide, N-(2-cycloheptylphenyl)-1,3-dimethyl-]",0.011,3,63,66,3,1,1,2,3
"C=CCn1cc(C(=O)Nc2ccccc2C2CCCCC2)c(C(F)F)n1 [Example 14, 1H-pyrazole-4-carboxamide, N-(2-cyclohexylphenyl)-3-(difluoromethyl)-1-(2-propenyl)-]",0.29,0,0,0,1,,,,
"O=C(Nc1ccccc1C1CCCCC1)c1c[nH]nc1C(F)F [Example 15, 1H-pyrazole-4-carboxamide, N-(2-cyclohexylphenyl)-3-(difluoromethyl)-]",0.014,2,36,89,0,2,3,,
